{"source": "BindingDB's records for doi:10.1021/jm058013g", "about": "(Universidad San Pablo Ceu, 2005)"}
{"target": "Cyclin-dependent kinase 1/G2/mitotic-specific cyclin-B (Marthasterias glacialis, UniProt P15206+Q9DGD3)", "sequence (Q9DGD3 whole entry)": "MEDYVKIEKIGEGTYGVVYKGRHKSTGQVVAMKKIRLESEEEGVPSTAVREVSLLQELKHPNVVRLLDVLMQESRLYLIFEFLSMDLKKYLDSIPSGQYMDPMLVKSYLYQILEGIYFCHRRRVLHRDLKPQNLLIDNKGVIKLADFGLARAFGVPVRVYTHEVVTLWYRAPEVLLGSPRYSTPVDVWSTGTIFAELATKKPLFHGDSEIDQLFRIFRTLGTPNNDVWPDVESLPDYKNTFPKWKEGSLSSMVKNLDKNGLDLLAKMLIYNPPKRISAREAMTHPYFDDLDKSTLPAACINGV", "sequence (P15206 whole entry)": "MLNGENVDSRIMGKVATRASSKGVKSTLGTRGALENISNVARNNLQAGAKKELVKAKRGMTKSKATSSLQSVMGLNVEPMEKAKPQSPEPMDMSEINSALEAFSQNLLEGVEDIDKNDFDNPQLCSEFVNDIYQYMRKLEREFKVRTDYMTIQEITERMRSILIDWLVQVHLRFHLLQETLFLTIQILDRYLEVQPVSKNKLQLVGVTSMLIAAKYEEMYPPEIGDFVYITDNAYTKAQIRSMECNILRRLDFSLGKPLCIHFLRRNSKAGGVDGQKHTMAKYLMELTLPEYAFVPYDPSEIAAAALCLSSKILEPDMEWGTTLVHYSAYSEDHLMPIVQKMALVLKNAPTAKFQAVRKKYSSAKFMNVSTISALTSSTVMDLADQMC", "test": "Kinase Inhibition Assay", "conditions": "30 °C", "units": {"IC50": "µM"}}
{"smiles": "CC(=O)n1nc(N)c2c(-c3ccccc3)c(-c3ccccc3)nnc21", "note": "[1-{3-amino-4,5-diphenyl-1H-pyrazolo[3,4-c]pyridazin-1-yl}ethan-1-one]", "IC50": "> 50"}
{"smiles": "CC(=O)Nc1nn(C(C)=O)c2nnc(-c3ccccc3)c(-c3ccccc3)c12", "note": "[3-Acetamido-1-acetyl-4,5-diphenyl-1H-pyrazolo[3,4-c]-pyridazine]", "IC50": "> 50"}
{"smiles": "Nc1nn(COCCO)c2nnc(-c3ccccc3)c(-c3ccccc3)c12", "note": "[2-[(3-Amino-4,5-diphenyl-1H-pyrazolo[3,4-c]pyridazin-1-yl)methoxy]ethanol]", "IC50": "> 50"}
{"smiles": "Nc1nn(Cc2ccccc2)c2nnc(-c3ccccc3)c(-c3ccccc3)c12", "note": "[3-Amino-1-benzyl-4,5-diphenyl-1H-pyrazolo[3,4-c]pyridazine]", "IC50": "> 50"}
{"smiles": "CC/N=C(\\S)Nc1[nH]nc2nnc(-c3ccco3)cc12", "note": "[3-ethyl-1-[5-(furan-2-yl)-1H-pyrazolo[3,4-c]pyridazin-3-yl]thiourea]", "IC50": "> 50"}
{"smiles": "CC(=O)Nc1n[nH]c2nnc(-c3ccccc3)c(-c3ccccc3)c12", "note": "[N-{4,5-diphenyl-1H-pyrazolo[3,4-c]pyridazin-3-yl}acetamide]", "IC50": "> 50"}
{"smiles": "Oc1[nH]nc2nnc(-c3ccccc3)c(-c3ccccc3)c12", "note": "[4,5-diphenyl-1H-pyrazolo[3,4-c]pyridazin-3-ol]", "IC50": "> 50"}
{"smiles": "Nc1nn(CCOCCO)c2nnc(-c3ccccc3)c(-c3ccccc3)c12", "note": "[2-[2-(3-Amino-4,5-diphenyl-1H-pyrazolo[3,4-c]pyridazin-1-yl)ethoxy]ethanol]", "IC50": "> 50"}
{"target": "Cyclin-dependent kinase 1/G2/mitotic-specific cyclin-B (Marthasterias glacialis, UniProt P15206+Q9DGD3)", "test": "Kinase Inhibition Assay", "conditions": "pH 7.2; 30 °C", "units": {"IC50": "µM"}}
{"smiles": "Nc1n[nH]c2nnc3c4ccccc4c4ccccc4c3c12", "note": "[17,18,20,21-tetraazapentacyclo[12.7.0.0^{2,7}.0^{8,13}.0^{15,19}]henicosa-1(21),2,4,6,8,10,12,14,16,19-decaen-16-amine]", "IC50": "> 50"}
{"smiles": "Cc1n[nH]c2nnc(N)c-2c1-c1ccccc1", "note": "[5-methyl-4-phenyl-1H-pyrazolo[3,4-c]pyridazin-3-amine]", "IC50": "> 50"}
{"smiles": "Nc1n[nH]c2nncc(-c3ccccc3)c12", "note": "[4-phenyl-1H-pyrazolo[3,4-c]pyridazin-3-amine]", "IC50": "> 50"}
{"smiles": "Nc1ccc(-c2nnc3[nH]nc(N)c3c2-c2ccc(N)cc2)cc1", "note": "[3-Amino-4,5-bis(p-aminophenyl)-1H-pyrazolo[3,4-c]-pyridazine]", "IC50": "> 50"}
{"smiles": "Nc1n[nH]c2nnc(-c3ccc(-c4ccccc4)cc3)c(-c3ccc(-c4ccccc4)cc3)c12", "note": "[3-Amino-4,5-bis(4-biphenyl)-1H-pyrazolo[3,4-c]pyridazine]", "IC50": "> 50"}
{"smiles": "Nc1n[nH]c2nnc(-c3ccc([N+](=O)[O-])cc3)c(-c3ccc([N+](=O)[O-])cc3)c12", "note": "[4,5-bis(4-nitrophenyl)-1H-pyrazolo[3,4-c]pyridazin-3-amine]", "IC50": "> 50"}
{"smiles": "Cc1n[nH]c2nnc(N)c-2c1C", "note": "[4,5-dimethyl-1H-pyrazolo[3,4-c]pyridazin-3-amine]", "IC50": "> 50"}
{"smiles": "Nc1n[nH]c2nnc(-c3ccc(C(F)(F)F)cc3)c(-c3ccc(C(F)(F)F)cc3)c12", "note": "[3-Amino-4,5-bis(p-trifluoromethylphenyl)-1H-pyrazolo-[3,4-c]pyridazine]", "IC50": "> 50"}
{"smiles": "CC(C)(C)c1ccc(-c2nnc3[nH]nc(N)c3c2-c2ccc(C(C)(C)C)cc2)cc1", "note": "[4,5-bis(4-tert-butylphenyl)-1H-pyrazolo[3,4-c]pyridazin-3-amine]", "IC50": "> 50"}
{"smiles": "Nc1n[nH]c2nnc(-c3ccccc3)cc12", "note": "[Pyrazolopyridazine deriv. 1n]", "IC50": 4}
{"smiles": "COc1ccc(-c2nnc3[nH]nc(N)c3c2-c2ccc(OC)cc2)cc1", "note": "[3-Amino-4,5-bis(p-methoxyphenyl)-1H-pyrazolo[3,4-c]-pyridazine]", "IC50": 15}
{"smiles": "Nc1n[nH]c2nnc(-c3ccccn3)c(-c3ccccn3)c12", "note": "[4,5-bis(pyridin-2-yl)-1H-pyrazolo[3,4-c]pyridazin-3-amine]", "IC50": "> 50"}
